Series [1] deals with Hela Cervical cancer. Description: Median lethal dosage (IC50) against tumor cell lines. The class given is cell-based. The conditions noted are these: Homo sapiens; Hela cervical cancer tumor cells.
The test system of series [2] is PANC1 Pancreatic cancer. The series is described as above. The class given is cell-based. The conditions noted are these: Homo sapiens, PANC-1; PANC1 pancreatic cancer tumor cells.
Series [3] has as its system B16 Melanoma. The description is as above. The class given is cell-based. The conditions noted are these: Mus musculus; B16 melanoma tumor cells.
The test system of series [4] is Sk-Hep1 Liver cancer. Described as above. The class given is cell-based. The following applies: Homo sapiens; Sk-Hep1 liver cancer tumor cells.
The subject of series [5] is Nalm-6 Leukemia. Described as above. The class given is cell-based. The conditions noted are these: Homo sapiens; Nalm-6 leukemia tumor cells.
The test system of series [6] is GES1. In words: Median lethal dosage (IC50) against normal cell lines. The class given is cell-based. The following applies: Homo sapiens; GES1 normal cells.
Series [7] concerns 3T3-L1. Described as above. The class given is cell-based. The conditions noted are these: Mus musculus; 3T3-L1 normal cells.
The subject of series [8] is C2C12. The description is as above. The class given is cell-based. The conditions noted are these: Mus musculus; C2C12 normal cells.
The subject of series [9] is cancer cells. In words: Cell death/apoptosis (PI Sub-G1 flow cytometry, MTT, Annexin V). The class given is cell-based. The conditions noted are these: 48 h. How it is done:
(§1) Ethidium bromide was purchased from Sigma (E7637) and treated as follows. Cancer and normal cells of various tissue origins with approximately 40% growth abundance were treated with 0.1, 0.4, and 1 μg/ml for 48 h, followed by PI staining and cycle detection by flow cytometry, statistical analysis of genomic DNA break (Sub-G1) cells, or cell viability by MTT method.
(§2) In support of this, cancer cells and normal cells from various tissues with growth abundance of about 40% were treated with 1, 2, and 5 μM for 48 h, respectively, and then observed the growth of the cells by light microscopy, followed by PI staining, detection and statistical analysis of genomic DNA break (Sub-G1) cells by flow cytometry (FIG. 3), or cell apoptosis detection by Annexin V staining method (FIG. 4).

Series [10] deals with normal cells. The description is as above. The class given is cell-based. The following applies: 48 h. How it is done:
as §1, §2

Series [11] concerns colorectal cancer cells RKO. In words: Scratch assay of cultured cells (migration). The class given is cell-based, human. The text has this:
(§3) Ectopic metastasis of tumors is the biggest challenge in tumor treatment.

Series [12] relates to pancreatic tumor cells Panc1. In words: Scratch assay of cultured cells (migration). The class given is cell-based, human.
Source text: as §3

Series [13] deals with colorectal cancer cells RKO. Description: Intraperitoneal injection of colorectal cancer cells RKO in nude mice, intravenous administration. The class given is in vivo. The text has this: In order to further investigate whether ethidium bromide also has a better inhibitory effect on other types of tumors, we administered nude mice 2 weeks after the intraperitoneal injection of 2×10^6 colorectal cancer cells RKO, and then tested the anti-tumor effect of ethidium bromide after 4 weeks of intravenous administration, as described above.

Series [14] concerns mTOR, p-NFkB, p-Erk, cleaved Caspase3. In words: Signaling molecules in cells by Western blotting. The class given is cell-based. How it is done:
We investigated the mechanism of ethidium bromide-induced apoptosis in tumor cells. First, tumor tissues treated with ethidium bromide (mice shown in FIGS. 7 and 8, treated for 4 weeks at 20 mg/Kg per day) were subjected to SDS-Loading buffer boiling lysis and tested for associated signaling pathways by Western blotting.
In order to further determine how ethidium bromide activates phosphorylation of Erk and Caspase3 cleavage and induces apoptosis, we also tested with different cell lines treated with ethidium bromide for 10 min, 30 min, 1, 2, and 6 h.

In series [15] the test system is tumor tissue blocks (PDX) from patients with colorectal cancer. In words: Subcutaneous patient colorectal cancer graft (PDX) in nude mice. The class given is in vivo.
[16] abbreviates: intravenous, start 2 weeks after cell injection, 4 weeks.
Setting [17] is: cell lines treated 10 min, 30 min, 1, 2, 6 h.

Regarding `CC[n+]1c(-c2ccccc2)c2cc(N)ccc2c2ccc(N)cc21` [ethidium bromide, Ethidium bromide], the IC50 in series [1] is 3.35 µM; in series [2] it was 3.3 µM; in [3] it was 11.2 µM; in series [4], 1.26 µM; in [5] it was 1.17 µM; in [6], 64.7 µM. For the same compound, the figures for the IC50 in series [7] and in [8] were 67.9 µM and 85.5 µM, respectively. Further, the “induction of cell death” value in series [9] (0.1, 0.4, 1 μg/ml, SK-Hep1, BEL-7404, B16) was “can selectively induce the death of a wide range of cancer cells”; in series [9] (1, 2, 5 μM, SK-Hep1, 7404, AGS, RKO), “can selectively induce the death of cancer cells in many different tissues”. The “growth inhibition / apoptosis” value in series [10] (0.1, 0.4, 1 μg/ml, Chang, LO2, 3T3-L1) was “inhibited growth at most and cannot induce apoptosis”; in series [10] (1, 2, 5 μM, LO2, chang, GES1), “only inhibited growth and cannot induce apoptosis”. Moreover, the “migration of tumor cells” value in series [11] and in series [12] was “significantly inhibit the migration” in each case. Also, the “liver and spleen weights vs control” value in [13] (intravenous, 4 weeks) was “no significant difference in liver and spleen weights”. For the same compound, in [13] (setting [16]), the “abdominal tumors vs control” value is given as “significantly smaller than those in the control group”. In series [13] (setting [16]), the “mice with tumors completely cleared” value is reported as “approximately 25%”. Further, the body weight result in series [13] (later stage, dosing group) is reported as “slight decrease in body weight”. In addition, in series [14] (setting [17]), the “time at which mTOR was activated” value came out at 10 min. For the same compound, the “time at which p-Erk was activated” value in series [14] (setting [17]) turned out to be 1 h. For the same compound, the “time at which p-NFkB was activated” value in series [14] (setting [17]) was determined as 30 min. Besides, the “cleaved Caspase3 and Erk phosphorylation in vitro” value in series [14] (in vitro cells (AGS, GES1, RKO), 3 days of treatment) is “significant increase in the phosphorylation levels of both cleaved Caspase3 and Erk”. Also, the subcutaneous tumor mass result in series [15] (20 mg/Kg in PBS injected directly into the tumor, once a day, three injections) is “rapidly necrotic and eventually died and fell off”. The anti-tumor effect entry in [15] (intravenously administered) is on record as “very limited”.

The values are drawn from patent US20250152577A1, “Pharmaceutical Composition of Ethidium Bromide and Use in Treating Cancer” (RUIJIN HOSPITAL, SHANGHAI JIAOTONG UNIVERSITY SCHOOL OF …, priority 2022, published 2025).
